In patent US7407961B2, “Pyrazine derivatives and pharmaceutical use thereof” (Astellas Pharma Inc., priority 2003, dated 2008) one finds melting point data, which are given here for 34 compounds.

Counter-ions that a name gives are not always drawn.

One may read the melting point as the temperature of the solid-liquid transition. Consider `CC(C)n1cc(-c2nc(C#N)c(N)nc2-c2ccccc2)ccc1=O` (as salt: Na) (hydrate or solvate) [Example 32, 3-Amino-6-(1-isopropyl-6-oxo-1,6-dihydro-3-pyridyl)-5-phenyl-2-pyrazinecarbonitrile], for which the melting point turned out to be 205.4 °C.

On to `Cn1cc(-c2nc(C#N)c(N)nc2-c2ccccc2)ccc1=O` (as salt: Na) [Example 11, 3-amino-6-(1-methyl-6-oxo-1,6-dihydro-3-pyridyl)-5-phenyl-2-pyrazinecarbonitrile], for which the melting point was above 250 °C.

As for `NC(=O)c1nc(-c2ccc(=O)[nH]c2)c(-c2ccccc2)nc1N` (hydrate or solvate) [Example 2, 3-amino-6-(6-oxo-1,6-dihydro-3-pyridyl)-5-phenyl-2-pyrazinecarboxamide], the melting point lay in the range of 215 to 220 °C.

For the compound `N#Cc1nc(-c2ccc(=O)[nH]c2)c(-c2ccccc2)nc1N` (hydrate or solvate) [Example 10, 3-amino-6-(6-oxo-1,6-dihydro-3-pyridyl)-5-phenyl-2-pyrazinecarbonitrile], the melting point lay in the range of 243 to 248 °C.

For `COc1ccc(-c2nc(C(N)=O)c(N)nc2-c2ccccc2)cn1` (hydrate or solvate) [Example 15, 3-amino-6-(6-methoxy-3-pyridyl)-5-phenyl-2-pyrazinecarboxamide], the melting point is 208 to 212 °C.

`CC(C)n1cc(-c2nc(C(N)=O)c(N)nc2-c2ccccc2)ccc1=O` (hydrate or solvate) [Example 16, 3-amino-6-(1-isopropyl-6-oxo-1,6-dihydro-3-pyridyl)-5-phenyl-2-pyrazinecarboxamide] registered a melting point of 245 °C.

Turning to `CC(C)n1cc(-c2nc(C(N)=O)c(N)nc2-c2ccccc2F)ccc1=O` (hydrate or solvate) [Example 17, 3-Amino-5-(2-fluorophenyl)-6-(1-isopropyl-6-oxo-1,6-dihydro-3-pyridyl)-2-pyrazinecarboxamide], the melting point was 251.7 °C.

`CC(C)n1cc(-c2nc(C(N)=O)c(N)nc2-c2cccc(F)c2)ccc1=O` (hydrate or solvate) [Example 18, 3-Amino-5-(3-fluorophenyl)-6-(1-isopropyl-6-oxo-1,6-dihydro-3-pyridyl)-2-pyrazinecarboxamide] registered a melting point of 258.8 °C.

Consider `CC(C)n1cc(-c2nc(C(N)=O)c(N)nc2-c2ccc(F)cc2)ccc1=O` (hydrate or solvate) [Example 19, 3-Amino-5-(4-fluorophenyl)-6-(1-isopropyl-6-oxo-1,6-dihydro-3-pyridyl)-2-pyrazinecarboxamide], for which the melting point was 235.6 °C.

In turn, `CC(C)n1cc(-c2nc(C(N)=O)c(N)nc2-c2cccc(Cl)c2)ccc1=O` (hydrate or solvate) [Example 21, 3-Amino-5-(3-chlorophenyl)-6-(1-isopropyl-6-oxo-1,6-dihydro-3-pyridyl)-2-pyrazinecarboxamide] yielded a melting point of 232.6 °C.

`CC(C)n1cc(-c2nc(C(N)=O)c(N)nc2-c2ccc(Cl)cc2)ccc1=O` (hydrate or solvate) [Example 22, 3-Amino-5-(4-chlorophenyl)-6-(1-isopropyl-6-oxo-1,6-dihydro-3-pyridyl)-2-pyrazinecarboxamide] showed a melting point of 246.2 °C.

`COc1ccccc1-c1nc(N)c(C(N)=O)nc1-c1ccc(=O)n(C(C)C)c1` (hydrate or solvate) [Example 23, 3-Amino-6-(1-isopropyl-6-oxo-1,6-dihydro-3-pyridyl)-5-(2-methoxyphenyl)-2-pyrazinecarboxamide] came in with a melting point of 263.1 °C.

Turning to `COc1cccc(-c2nc(N)c(C(N)=O)nc2-c2ccc(=O)n(C(C)C)c2)c1` (hydrate or solvate) [Example 24, 3-Amino-6-(1-isopropyl-6-oxo-1,6-dihydro-3-pyridyl)-5-(3-methoxyphenyl)-2-pyrazinecarboxamide], the melting point worked out at 192.3 °C.

`COc1ccc(-c2nc(N)c(C(N)=O)nc2-c2ccc(=O)n(C(C)C)c2)cc1` (hydrate or solvate) [Example 25, 3-Amino-6-(1-isopropyl-6-oxo-1,6-dihydro-3-pyridyl)-5-(4-methoxyphenyl)-2-pyrazinecarboxamide] had a melting point of 243.9 °C.

`CC(C)n1cc(-c2nc(C(N)=O)c(N)nc2-c2ccccc2OC(F)(F)F)ccc1=O` (hydrate or solvate) [Example 26, 3-Amino-6-(1-isopropyl-6-oxo-1,6-dihydro-3-pyridyl)-5-[2-(trifluoromethoxy)phenyl]-2-pyrazinecarboxamide] gave a melting point of 206.5 °C.

For the compound `CC(C)n1cc(-c2nc(C(N)=O)c(N)nc2-c2cccc(OC(F)(F)F)c2)ccc1=O` (hydrate or solvate) [Example 27, 3-Amino-6-(1-isopropyl-6-oxo-1,6-dihydro-3-pyridyl)-5-[3-(trifluoromethoxy)phenyl]-2-pyrazinecarboxamide], the melting point was determined as 265.5 °C.

Consider `CC(C)n1cc(-c2nc(C(N)=O)c(N)nc2-c2ccc(OC(F)(F)F)cc2)ccc1=O` (hydrate or solvate) [Example 28, 3-Amino-6-(1-isopropyl-6-oxo-1,6-dihydro-3-pyridyl)-5-[4-(trifluoromethoxy)phenyl]-2-pyrazinecarboxamide], for which the melting point was determined as 264 °C.

Consider `CC(C)n1cc(-c2nc(C(N)=O)c(N)nc2-c2ccc(F)c(F)c2)ccc1=O` (hydrate or solvate) [Example 29, 3-Amino-5-(3,4-difluorophenyl)-6-(1-isopropyl-6-oxo-1,6-dihydro-3-pyridyl)-2-pyrazinecarboxamide], for which the melting point came to 225.8 °C.

Compound `CC(C)n1cc(-c2nc(C(N)=O)c(N)nc2-c2cc(F)cc(F)c2)ccc1=O` (hydrate or solvate) [Example 30, 3-Amino-5-(3,5-difluorophenyl)-6-(1-isopropyl-6-oxo-1,6-dihydro-3-pyridyl)-2-pyrazinecarboxamide] gave a melting point of 248.8 °C.

Compound `CC(C)n1cc(-c2nc(C(N)=O)c(N)nc2-c2ccc(C#N)cc2)ccc1=O` (hydrate or solvate) [Example 31, 3-Amino-5-(4-cyanophenyl)-6-(1-isopropyl-6-oxo-1,6-dihydro-3-pyridyl)-2-pyrazinecarboxamide] registered a melting point of 292 °C.

Compound `CC(C)n1cc(-c2nc(C#N)c(N)nc2-c2ccccc2F)ccc1=O` (hydrate or solvate) [Example 33, 3-Amino-5-(2-fluorophenyl)-6-(1-isopropyl-6-oxo-1,6-dihydro-3-pyridyl)-2-pyrazinecarbonitrile] had a melting point of 210.6 °C.

In the case of `CC(C)n1cc(-c2nc(C#N)c(N)nc2-c2cccc(F)c2)ccc1=O` (hydrate or solvate) [Example 34, 3-Amino-5-(3-fluorophenyl)-6-(1-isopropyl-6-oxo-1,6-dihydro-3-pyridyl)-2-pyrazinecarbonitrile], the melting point was determined as 210.6 °C.

For the compound `CC(C)n1cc(-c2nc(C#N)c(N)nc2-c2ccc(F)cc2)ccc1=O` (hydrate or solvate) [Example 35, 3-Amino-5-(4-fluorophenyl)-6-(1-isopropyl-6-oxo-1,6-dihydro-3-pyridyl)-2-pyrazinecarbonitrile], the melting point was 207 °C.

`COc1ccccc1-c1nc(N)c(C#N)nc1-c1ccc(=O)n(C(C)C)c1` (hydrate or solvate) [Example 36, 3-Amino-6-(1-isopropyl-6-oxo-1,6-dihydro-3-pyridyl)-5-(2-methoxyphenyl)-2-pyrazinecarbonitrile] displayed a melting point of 222.6 °C.

Compound `COc1cccc(-c2nc(N)c(C#N)nc2-c2ccc(=O)n(C(C)C)c2)c1` (hydrate or solvate) [Example 37, 3-Amino-6-(1-isopropyl-6-oxo-1,6-dihydro-3-pyridyl)-5-(3-methoxyphenyl)-2-pyrazinecarbonitrile] displayed a melting point of 192.3 °C.

In the case of `COc1ccc(-c2nc(N)c(C#N)nc2-c2ccc(=O)n(C(C)C)c2)cc1` (hydrate or solvate) [Example 38, 3-Amino-6-(1-isopropyl-6-oxo-1,6-dihydro-3-pyridyl)-5-(4-methoxyphenyl)-2-pyrazinecarbonitrile], the melting point came out at 243.9 °C.

As for `CC(C)n1cc(-c2nc(C#N)c(N)nc2-c2ccc(F)c(F)c2)ccc1=O` (hydrate or solvate) [Example 39, 3-Amino-5-(3,4-difluorophenyl)-6-(1-isopropyl-6-oxo-1,6-dihydro-3-pyridyl)-2-pyrazinecarbonitrile], the melting point is 180 °C.

In turn, `CC(C)n1cc(-c2nc(C(=O)O)c(N)nc2-c2ccc(F)cc2)ccc1=O` (hydrate or solvate) [Example 40, 3-amino-5-(4-fluorophenyl)-6-(1-isopropyl-6-oxo-1,6-dihydro-3-pyridyl)-2-pyrazinecarboxylic acid] yielded a melting point of 222.2 °C.

On to `COc1ccc(-c2nc(C#N)c(N)nc2-c2ccccc2)cn1` [Example 1, 3-amino-6-(6-methoxy-3-pyridyl)-5-phenyl-2-pyrazinecarbonitrile], for which the melting point lay in the range of 201 to 205 °C.

Take `Cn1cc(-c2nc(C(N)=O)c(N)nc2-c2ccccc2)ccc1=O` [Example 3, 3-amino-6-(1-methyl-6-oxo-1,6-dihydro-3-pyridyl)-5-phenyl-2-pyrazinecarboxamide]: the melting point is above 250 °C.

For `CCCn1cc(-c2nc(C(N)=O)c(N)nc2-c2ccccc2)ccc1=O` [Example 5, 3-Amino-6-(6-oxo-1-propyl-1,6-dihydro-3-pyridyl)-5-phenyl-2-pyrazinecarboxamide], the melting point is above 250 °C.

`CC(C)n1cc(-c2nc(C(N)=O)c(N)nc2-c2ccccc2)ccc1=O` [Example 6, 3-Amino-6-(1-isopropyl-6-oxo-1,6-dihydro-3-pyridyl)-5-phenyl-2-pyrazinecarboxamide] registered a melting point of 240 to 245 °C.

`CCOC(=O)c1nc(-c2ccc(=O)[nH]c2)c(-c2ccccc2)nc1N` [Example 8, Ethyl 3-amino-6-(6-oxo-1,6-dihydro-3-pyridyl)-5-phenyl-2-pyrazinecarboxylate] yielded a melting point of 230 to 238 °C.

In turn, `CC(C)OC(=O)c1nc(-c2ccc(=O)[nH]c2)c(-c2ccccc2)nc1N` [Example 9, isopropyl 3-amino-6-(6-oxo-1,6-dihydro-3-pyridyl)-5-phenyl-2-pyrazinecarboxylate] came in with a melting point of 250 to 256 °C.
